# According to patent publication US9688638B2, “Opioid agonists and uses thereof” (priority 2013, dated 2017):
# Where “and” joins values, the source holds several entries; their conditions need not be identical. Equal values may be shown once. Read-outs that look alike come from different tables or passages of the source.
# How the values were obtained:
# [1] = molecular target: recombinant human kappa (KOR) opioid receptor (Homo sapiens (Human), UniProt P41145); test: biochemical; assay type: binding
# [2] = molecular target: KOR (Homo sapiens (Human), UniProt P41145); test: cAMP accumulation assay, forskolin-stimulated CHO-K1 cells stably expressing KOR; assay type: cell-based
# Procedure: Inhibition of cAMP accumulation by select compounds was measured in forskolin-stimulated CHO-K1 cells stably expressing KOR. CHO-K1 cells stably expressing KOR were harvested using Invitrogen Cell Dissociation Buffer, and then centrifuged at 1200 rpm for five minutes. The supernatant was aspirated and cells were resuspended in assay buffer to a density of 4×10^5 cells/mL. 25 μL of cells were added into a white half-area 96 well plate. Fourteen point serial dilutions of test compounds were carried out in assay buffer (PBS with 0.5 mM IBMX). Ketazocine was used as a positive control for each assay. 12.5 μL of compound was added to the cells in duplicate for each test concentration. The cells were then stimulated with 12.5 μL forskolin at a final concentration 20 μM. Cells were incubated for 45 minutes in a 37° C., 5% CO2 water jacketed incubator. CisBio HTRF cAMP assay reagent was used for cAMP quantitation. Two hours after substrate addition, signal at 665/615 nm was measured using the Perkin Elmer Victor X4 HTRF reader. Data analysis was done using GraphPad Prism, sigmoidal dose-response (variable slope) curve fitting.
# [3] = tested on: Swiss Albino or CD-1 male mice; test: Acetic acid writhing (AAW) analgesic assay; assay type: in vivo; conditions: for inhibition in vivo at 3 mg/kg / inhibition in vivo at 30 mg/kg / inhibition in vivo at 10 mg/kg / inhibition in vivo at 0.3 mg/kg: Mus musculus, 20 min, read-out: AAW % Efficacy
# Procedure: Approaches for evaluating analgesic activity of a compound of the present invention in vivo include a “writhing test.” Briefly, the compound to be tested is administered [by, for example, injection (e.g., subcutaneous injection)] to the mouse. Thereafter, a 0.5% acetic acid solution is administered (i.p.) to a mouse and the numbers of writhing responses are counted for twenty minutes. Antinociception is quantified as reduction in the number of writhes respective to vehicle.
# An analgesic assay was used to determine whether a given compound can reduce and/or prevent visceral pain in mice. The assay utilizes Swiss Albino or CD-1 male mice (5-10 mice per group), each mouse being approximately 0.015-0.030 kg on the study day. Mice were treated according to standard protocols.
# The animal was given an intraperitoneal (IP) injection of an irritant (acetic acid) that induces “writhing” which may include: contractions of the abdomen, twisting and turning of the trunk, arching of the back and the extension of the hindlimbs. Mice are given a single IP injection (0.1 mL/10 g bodyweight) of a 0.5% acetic acid solution. After the injection the animals were returned to their observation enclosure and their behavior was observed. Contractions were counted between 0 and 20 minutes after the injection. The animals were used once. In certain instances, the test articles were administered at multiple doses to determine a dose response curve.
# Table 4 provides the results for certain compounds of the present invention that were administered subcutaneously. Table 5 provides the results for certain compounds of the present invention that were administered orally.
# [4] = inhibition of cAMP accumulation, forskolin 20 μM, read-out: EC50 cAMP (nM)-KOR
smiles,measurement,setting,value
"COCCOCCOCCOCCOCCNc1ccc2c(c1)[C@]1(C)CCN(CC3CC3)[C@H](C2=O)[C@@H]1C [Compound 2, (2S,6R,11R)-3-(Cyclopropylmethyl)-6,11-dimethyl-8-(2,5,8,11,14-pentaoxahexadecan-16-ylamino)-3,4,5,6-tetrahydro-2,6-methano-3-benzazocin-1(2H)-one]",IC50,[1],2380 nM
same,Ki,[1],549 nM
same,EC50,[2]; [4],139 nM
"COCCOCCOCCOCCOCCOCCOCCNc1ccc2c(c1)[C@]1(C)CCN(CC3CC3)[C@H](C2=O)[C@@H]1C [Compound 3, (2S,6R,11R)-3-(Cyclopropylmethyl)-8-(2,5,8,11,14,17,20-heptaoxadocosan-22-ylamino)-6,11-dimethyl-3,4,5,6-tetrahydro-2,6-methano-3-benzazocin-1(2H)-one]",Ki,"[1]; Cheng Prusoff correction, [3H]Diprenorphine 1 nM, CHO-K1 membranes, read-out: Kappa receptor binding Ki",769 nM
same,IC50,"[1]; [3H]Diprenorphine 1 nM, CHO-K1 membranes, read-out: Kappa receptor binding IC50",3330 nM
same,EC50,[2]; [4],122 nM
"COCCOCCOCCOCCOCCOCCOCCOc1ccc2c(c1)[C@]1(C)CCN(CC3CC3)[C@H](C2=O)[C@@H]1C [Compound 6, (2S,6R,11R)-3-(Cyclopropylmethyl)-8-(2,5,8,11,14,17,20-heptaoxadocosan-22-yloxy)-6,11-dimethyl-3,4,5,6-tetrahydro-2,6-methano-3-benzazocin-1(2H)-one]",IC50,[1],6080 nM
same,Ki,[1],1400 nM
same,EC50,[2],357 nM
"COCCOCCOCCOCCOCCOc1ccccc1Nc1ccc2c(c1)[C@]1(C)CCN(CC3CC3)[C@H](C2=O)[C@@H]1C [Compound 7, (2S,6R,11R)-8-((2-(2,5,8,11,14-pentaoxahexadecan-16-yloxy)phenyl)amino)-3-(cyclopropylmethyl)-6,11-dimethyl-3,4,5,6-tetrahydro-2,6-methanobenzo[d]azocin-1(2H)-one]",inhibition in vivo at 3 mg/kg,"[3]; sc, subcutaneous, 3 mg/kg",38.8%
same,inhibition in vivo at 30 mg/kg,"[3]; sc, subcutaneous",84.8%
same,"AAW percent efficacy, outlier data removed","[3]; subcutaneous, 3 mg/kg",31.95
"COCCOCCOCCOCCOCCOc1cccc(Nc2ccc3c(c2)[C@]2(C)CCN(CC4CC4)[C@H](C3=O)[C@@H]2C)c1 [Compound 8, (2S,6R,11R)-8-((3-(2,5,8,11,14-pentaoxahexadecan-16-yloxy)phenyl)amino)-3-(cyclopropylmethyl)-6,11-dimethyl-3,4,5,6-tetrahydro-2,6-methanobenzo[d]azocin-1(2H)-one]",inhibition in vivo at 3 mg/kg,"[3]; sc, subcutaneous, 3 mg/kg",38%
same,inhibition in vivo at 30 mg/kg,"[3]; sc, subcutaneous",100%
same,"AAW percent efficacy, outlier data removed","[3]; subcutaneous, 3 mg/kg",31.07
"COCCOCCOCCOCCOCCOc1ccc(Nc2ccc3c(c2)[C@]2(C)CCN(CC4CC4)[C@H](C3=O)[C@@H]2C)cc1 [Compound 9, (2S,6R,11R)-8-((4-(2,5,8,11,14-pentaoxahexadecan-16-yloxy)phenyl)amino)-3-(cyclopropylmethyl)-6,11-dimethyl-3,4,5,6-tetrahydro-2,6-methanobenzo[d]azocin-1(2H)-one]",inhibition in vivo at 10 mg/kg,"[3]; po, oral, 10 mg/kg",38.5%
same,inhibition in vivo at 0.3 mg/kg,"[3]; sc, subcutaneous, 0.3 mg/kg",13.3%
same,inhibition in vivo at 3 mg/kg,"[3]; sc, subcutaneous, 3 mg/kg",67.8%
same,inhibition in vivo at 10 mg/kg,"[3]; sc, subcutaneous, 10 mg/kg",95.4%
same,inhibition in vivo at 30 mg/kg,"[3]; sc, subcutaneous",99.2%
same,"AAW percent efficacy, outlier data removed","[3]; subcutaneous, 0.3 mg/kg",13.18
same,"AAW percent efficacy, outlier data removed","[3]; subcutaneous, 3 mg/kg",64.20 and 57.09
same,"AAW percent efficacy, outlier data removed","[3]; subcutaneous, 10 mg/kg",94.93
"COCCOCCOCCOCCOCCNc1ccc(Nc2ccc3c(c2)[C@]2(C)CCN(CC4CC4)[C@H](C3=O)[C@@H]2C)cc1 [Compound 10, (2S,6R,11R)-8-((4-(2,5,8,11,14-pentaoxahexadecan-16-ylamino)phenyl)amino)-3-(cyclopropylmethyl)-6,11-dimethyl-3,4,5,6-tetrahydro-2,6-methanobenzo[d]azocin-1(2H)-one]",inhibition in vivo at 30 mg/kg,"[3]; sc, subcutaneous",100%
same,AAW % Efficacy,"[3]; subcutaneous, 3 mg/kg",34.0%
same,"AAW percent efficacy, outlier data removed","[3]; subcutaneous, 3 mg/kg",26.63
"COCCOCCOCCOCCOCCNc1cccc(Nc2ccc3c(c2)[C@]2(C)CCN(CC4CC4)[C@H](C3=O)[C@@H]2C)c1 [Compound 11, (2S,6R,11R)-8-((3-(2,5,8,11,14-pentaoxahexadecan-16-ylamino)phenyl)amino)-3-(cyclopropylmethyl)-6,11-dimethyl-3,4,5,6-tetrahydro-2,6-methanobenzo[d]azocin-1(2H)-one]",inhibition in vivo at 10 mg/kg,"[3]; po, oral, 10 mg/kg",31.2%
same,inhibition in vivo at 0.3 mg/kg,"[3]; sc, subcutaneous, 0.3 mg/kg",21.1%
same,inhibition in vivo at 3 mg/kg,"[3]; sc, subcutaneous, 3 mg/kg",62.2%
same,inhibition in vivo at 10 mg/kg,"[3]; sc, subcutaneous, 10 mg/kg",99.1%
same,inhibition in vivo at 30 mg/kg,"[3]; sc, subcutaneous",100%
same,"AAW percent efficacy, outlier data removed","[3]; subcutaneous, 0.3 mg/kg",12.30
same,"AAW percent efficacy, outlier data removed","[3]; subcutaneous, 3 mg/kg",56.21 and 60.30
same,"AAW percent efficacy, outlier data removed","[3]; subcutaneous, 10 mg/kg",99.00
"COCCOCCOCCOCCOCCNc1nc2cc3c(cc2s1)C(=O)[C@@H]1[C@H](C)[C@@]3(C)CCN1CC1CC1 [Compound 13, (6S,10R,12R)-2-(2,5,8,11,14-pentaoxahexadecan-16-ylamino)-7-(cyclopropylmethyl)-10,12-dimethyl-7,8,9,10-tetrahydro-6,10-methanothiazolo[4′,5′:4,5]benzo[1,2-d]azocin-5(6H)-one]",inhibition in vivo at 10 mg/kg,"[3]; sc, subcutaneous, 10 mg/kg",40.2%
"COCCOCCN1CC[C@@]2(C)c3cc(O)ccc3C(=O)[C@@H]1[C@@H]2C [Compound 14, (2S,6R,11R)-8-hydroxy-3-(2-(2-methoxyethoxy)ethyl)-6,11-dimethyl-3,4,5,6-tetrahydro-2,6-methanobenzo[d]azocin-1(2H)-one]",inhibition in vivo at 10 mg/kg,"[3]; sc, subcutaneous, 10 mg/kg",13.2%
"COCCOCC(=O)Nc1ccc2c(c1)[C@]1(C)CCN(CC3CC3)[C@H](C2=O)[C@@H]1C [Compound 15, N-((2S,6R,11R)-3-(cyclopropylmethyl)-6,11-dimethyl-1-oxo-1,2,3,4,5,6-hexahydro-2,6-methanobenzo[d]azocin-8-yl)-2-(2-methoxyethoxy)acetamide]",inhibition in vivo at 10 mg/kg,"[3]; sc, subcutaneous, 10 mg/kg",100%
"COCCNC(=O)c1ccc2c(c1)[C@]1(C)CCN(CC3CC3)[C@H](C2=O)[C@@H]1C [Compound 16, (2S,6R,11R)-3-(cyclopropylmethyl)-N-(2-methoxyethyl)-6,11-dimethyl-1-oxo-1,2,3,4,5,6-hexahydro-2,6-methanobenzo[d]azocine-8-carboxamide]",inhibition in vivo at 10 mg/kg,"[3]; sc, subcutaneous, 10 mg/kg",26.4%
"COCCOCC(=O)NCc1ccc2c(c1)[C@]1(C)CCN(CC3CC3)C(C2=O)[C@@H]1C [Compound 17, N,N-(((2S,6R,11R)-3-(cyclopropylmethyl)-6,11-dimethyl-1-oxo-1,2,3,4,5,6-hexahydro-2,6-methanobenzo[d]azocin-8-yl)methyl)-2-(2-methoxyethoxy)acetamide]",inhibition in vivo at 10 mg/kg,"[3]; sc, subcutaneous, 10 mg/kg",23.3%
"COCCOCCNCc1ccc2c(c1)[C@]1(C)CCN(CC3CC3)[C@H](C2=O)[C@@H]1C [Compound 18, (2S,6R,11R)-3-(cyclopropylmethyl)-8-(((2-(2-methoxyethoxy)ethyl)amino)methyl)-6,11-dimethyl-3,4,5,6-tetrahydro-2,6-methanobenzo[d]azocin-1(2H)-one]",inhibition in vivo at 10 mg/kg,"[3]; sc, subcutaneous, 10 mg/kg",31.9%
"COCCOCCOCCOCCOCCOc1c(O)ccc2c1[C@]1(C)CCN(CC3CC3)[C@H](C2=O)[C@@H]1C [Compound 19, (2S,6R,11R)-7-(2,5,8,11,14-pentaoxahexadecan-16-yloxy)-3-(cyclopropylmethyl)-8-hydroxy-6,11-dimethyl-3,4,5,6-tetrahydro-2,6-methanobenzo[d]azocin-1(2H)-one]",inhibition in vivo at 10 mg/kg,"[3]; sc, subcutaneous, 10 mg/kg",31.6%
"COCCOCCOCCOCCOCCO[C@@H]1c2ccc(O)cc2[C@]2(C)CCN(CC3CC3)[C@H]1[C@@H]2C [Compound 25, (1R,2S,6R,11R)-1-(2,5,8,11,14-pentaoxahexadecan-16-yloxy)-3-(cyclopropylmethyl)-6,11-dimethyl-1,2,3,4,5,6-hexahydro-2,6-methanobenzo[d]azocin-8-ol]",Ki,[1],955 nM
same,EC50,[2]; [4],195 nM
"C[C@H]1[C@H]2C(=O)c3cc4sc(N)nc4cc3[C@]1(C)CCN2CC1CC1 [Step 1 of 13, (6S,10R,12R)-2-amino-7-(cyclopropylmethyl)-10,12-dimethyl-7,8,9,10-tetrahydro-6,10-methanothiazolo[4′,5′:4,5]benzo[1,2-d]azocin-5(6H)-one]",inhibition in vivo at 10 mg/kg,"[3]; sc, subcutaneous, 10 mg/kg",100%
